We go through one compound from article PMC2942994 (Biochemical pharmacology, 2010).

Assay [1] deals with hSERT V367I (Homo sapiens, UniProt P31645, V367I). The assay is described as follows: cell-based. Set-up: species or system HEK-293, transiently transfected.
Assay [2] addresses hSERT (human serotonin transporter) (Homo sapiens, UniProt P31645, M370L). Description: cell-based. Also noted: species or system HEK-293, transiently transfected.

Structures are written as SMILES.

Chain of hSERT (human serotonin transporter) (P31645 whole entry M370L): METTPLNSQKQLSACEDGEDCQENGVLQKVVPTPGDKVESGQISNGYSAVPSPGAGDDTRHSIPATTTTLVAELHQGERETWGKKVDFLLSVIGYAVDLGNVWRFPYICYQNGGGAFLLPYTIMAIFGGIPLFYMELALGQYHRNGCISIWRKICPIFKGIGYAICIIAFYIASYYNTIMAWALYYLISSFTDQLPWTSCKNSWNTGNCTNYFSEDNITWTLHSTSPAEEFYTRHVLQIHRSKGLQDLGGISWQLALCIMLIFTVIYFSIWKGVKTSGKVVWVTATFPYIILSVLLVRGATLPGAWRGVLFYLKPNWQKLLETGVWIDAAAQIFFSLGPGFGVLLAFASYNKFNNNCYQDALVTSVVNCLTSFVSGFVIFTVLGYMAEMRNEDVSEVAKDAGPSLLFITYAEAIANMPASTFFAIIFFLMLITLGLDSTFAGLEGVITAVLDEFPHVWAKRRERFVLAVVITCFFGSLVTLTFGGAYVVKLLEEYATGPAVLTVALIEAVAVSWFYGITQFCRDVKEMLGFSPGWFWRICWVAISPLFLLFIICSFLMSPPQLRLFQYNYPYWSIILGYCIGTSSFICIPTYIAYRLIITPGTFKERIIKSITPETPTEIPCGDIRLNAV
Chain of hSERT V367I (P31645 whole entry V367I): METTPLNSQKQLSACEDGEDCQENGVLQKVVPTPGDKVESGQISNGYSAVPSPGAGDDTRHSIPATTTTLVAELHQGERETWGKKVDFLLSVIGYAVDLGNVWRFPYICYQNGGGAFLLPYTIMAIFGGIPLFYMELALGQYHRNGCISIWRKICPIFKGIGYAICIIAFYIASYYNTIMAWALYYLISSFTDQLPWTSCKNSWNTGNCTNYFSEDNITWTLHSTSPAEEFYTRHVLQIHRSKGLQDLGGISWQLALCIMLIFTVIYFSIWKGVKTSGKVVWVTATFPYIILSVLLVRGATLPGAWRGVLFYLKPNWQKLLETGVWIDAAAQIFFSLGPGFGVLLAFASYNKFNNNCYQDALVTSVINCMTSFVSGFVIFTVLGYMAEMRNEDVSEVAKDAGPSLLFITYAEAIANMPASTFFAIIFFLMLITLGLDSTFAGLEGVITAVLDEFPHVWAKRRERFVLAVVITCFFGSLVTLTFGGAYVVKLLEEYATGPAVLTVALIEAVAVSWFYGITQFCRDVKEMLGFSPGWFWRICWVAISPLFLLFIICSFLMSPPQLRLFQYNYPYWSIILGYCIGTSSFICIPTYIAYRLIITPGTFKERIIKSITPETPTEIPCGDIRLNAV

Take `COC(=O)[C@H]1[C@@H](c2ccc(I)cc2)C[C@@H]2CC[C@H]1N2C` [RTI-55]: the Ki in assay [1] was 0.016 ± 0.006 µM; in assay [2] it was 0.016 ± 0.002 µM.
